Like-named read-outs stand apart in the source and are kept apart here. Where no end group is shown, it is not given here.

Experiment [1] addresses Angiotensin-converting enzyme (ACE) (Homo sapiens, UniProt P12821). The experiment can be described thus: ACE inhibition, Cushman & Cheung method with slight modifications (HHL substrate). The experiment is classed as biochemical. The source says: Characterization of Novel Angiotensin-Converting Enzyme Inhibitory Peptides Camila Innocente-Alves1,2, Sara Luísa Sulzbach1, Emerson Gonçalves Moreira3, Raul Izidoro Carneiro3, Lucélia Santi1,2,3, Hugo Verli2,3, Walter Orlando Beys-da-Silva1,2,3* 1 Faculdade de Farmácia, Universidade Federal do Rio Grande do Sul, Porto Alegre, Brasil 2 Programa de Pós-Graduação em Biologia Celular e Molecular, Universidade Federal do Rio Grande do Sul, Porto Alegre, Brasil
3 Centro de Biotecnologia (CBiot), Universidade Federal do Rio Grande do Sul, Porto Alegre,
* corresponding author: walter.beys@ufrgs.br
Selection of the bioactive peptides
The peptides were selected from a previous virtual screening performed against our chemical library (PepDB), and evaluated in vitro for its antihypertensive potential. The structures of the peptides, […] […]
PyRosetta. […] The molecular docking result was evaluated usin g the Protein-Ligand Interaction Profile (PLIP) tool ( https://plip-tool.biotec.tu-dresden.de/) for characterization of the interactions and PyMOL ( https://www.pymol.org/) visualization. […]
The peptides were synthesized by AminoTech ( São Paulo, Brazil). […] The ability of the peptides to inhibit ACE activity was evaluated by the Cushman & Cheung method with slight modifications. Absorbances were read at 228 nm (Spectramax M2, Molecular Devices) and ACE inhibition was expressed as percentage of inhibition. […]

The subject of experiment [2] is ACE. As to conditions: peony seed peptides, VLSGF vs HWS; cited from earlier work.
In experiment [3] the test system is ACE C-domain and N-domain. Further details: method as in 2 sources, one per row (each row's own in cited_ref): ref 22 (probable, citation mark not shown) ||| ref 20 (probable, citation mark not shown). To be noted: C-domain vs N-domain; ref 22 (probable, citation mark not shown); cited from earlier work. The text has this:
Both drugs are tripeptides-analogues and present a proline-like C-terminal extremity to interact with the S2′ pocket of ACE, which is composed of Gln281, Tyr520, Lys511, His513, and His353. […] Captopril presents a smaller structure with a sulfhydryl group at the N-terminal to interact with the zinc ion.

Angiotensin-converting enzyme (ACE), sequence (P12821 30-1306, species assumed): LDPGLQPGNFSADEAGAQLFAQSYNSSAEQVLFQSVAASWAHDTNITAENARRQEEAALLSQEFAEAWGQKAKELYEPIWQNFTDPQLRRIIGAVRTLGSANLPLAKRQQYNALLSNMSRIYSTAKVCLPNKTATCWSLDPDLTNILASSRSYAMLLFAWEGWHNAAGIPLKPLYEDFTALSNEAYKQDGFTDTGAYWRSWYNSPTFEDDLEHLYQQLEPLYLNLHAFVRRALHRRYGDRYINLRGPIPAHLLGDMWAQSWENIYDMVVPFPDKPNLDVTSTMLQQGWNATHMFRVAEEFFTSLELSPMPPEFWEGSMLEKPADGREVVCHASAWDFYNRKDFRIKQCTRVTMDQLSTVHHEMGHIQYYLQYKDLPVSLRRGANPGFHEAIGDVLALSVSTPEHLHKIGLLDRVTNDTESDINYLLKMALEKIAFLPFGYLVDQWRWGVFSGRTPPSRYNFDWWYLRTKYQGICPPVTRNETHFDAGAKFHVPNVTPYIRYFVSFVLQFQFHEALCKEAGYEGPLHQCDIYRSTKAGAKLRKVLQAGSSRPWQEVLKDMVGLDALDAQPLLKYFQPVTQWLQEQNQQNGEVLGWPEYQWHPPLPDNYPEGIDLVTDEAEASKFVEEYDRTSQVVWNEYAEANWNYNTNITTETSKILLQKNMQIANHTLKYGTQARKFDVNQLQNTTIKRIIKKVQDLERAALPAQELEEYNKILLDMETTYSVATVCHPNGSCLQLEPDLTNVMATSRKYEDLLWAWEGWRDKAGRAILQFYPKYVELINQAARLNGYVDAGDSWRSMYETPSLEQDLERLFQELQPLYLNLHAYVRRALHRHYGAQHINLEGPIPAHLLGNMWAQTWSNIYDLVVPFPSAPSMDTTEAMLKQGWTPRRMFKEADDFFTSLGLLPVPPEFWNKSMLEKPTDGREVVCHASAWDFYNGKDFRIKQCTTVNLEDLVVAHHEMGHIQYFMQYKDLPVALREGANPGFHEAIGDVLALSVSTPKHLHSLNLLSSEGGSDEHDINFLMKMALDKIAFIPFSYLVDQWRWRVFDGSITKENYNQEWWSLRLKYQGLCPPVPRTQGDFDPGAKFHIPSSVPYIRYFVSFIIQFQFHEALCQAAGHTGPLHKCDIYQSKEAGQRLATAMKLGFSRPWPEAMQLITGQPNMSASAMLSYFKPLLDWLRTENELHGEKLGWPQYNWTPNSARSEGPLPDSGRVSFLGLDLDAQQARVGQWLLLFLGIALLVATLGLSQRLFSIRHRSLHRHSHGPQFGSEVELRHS

Broadly, the IC50 is the point on the concentration scale where inhibition reaches its midpoint. For MSFLEHFLELK [PepDB_AHP1], the IC50 in experiment [1] (Cushman & Cheung method, HHL substrate, absorbance 228 nm, at least triplicates, nonlinear regression GraphPad Prism 8.0.1, read-out: IC50) was determined as 331 µM.

As to VLSGF, the “relative IC50” value in experiment [2] was “lower IC50”. With `NCCCC[C@H](N[C@@H](CCc1ccccc1)C(=O)O)C(=O)N1CCC[C@H]1C(=O)O` [Lisinopril], in experiment [3], the “affinity to ACE domains” value is given as “higher affinity to the C-domain”.

In experiment [1], VWTNCYHLYPAH [PepDB_AHP4] gave an IC50 of 88.6 µM.
